Test [1] addresses T1, GO (Mus musculus, UniProt Q9WU19).
T1 construct: endogenous in cells; host or cells: primary hepatocytes from male C56BL/6 (so in the source) mouse liver
T1 sequence (Q9WU19 1-370): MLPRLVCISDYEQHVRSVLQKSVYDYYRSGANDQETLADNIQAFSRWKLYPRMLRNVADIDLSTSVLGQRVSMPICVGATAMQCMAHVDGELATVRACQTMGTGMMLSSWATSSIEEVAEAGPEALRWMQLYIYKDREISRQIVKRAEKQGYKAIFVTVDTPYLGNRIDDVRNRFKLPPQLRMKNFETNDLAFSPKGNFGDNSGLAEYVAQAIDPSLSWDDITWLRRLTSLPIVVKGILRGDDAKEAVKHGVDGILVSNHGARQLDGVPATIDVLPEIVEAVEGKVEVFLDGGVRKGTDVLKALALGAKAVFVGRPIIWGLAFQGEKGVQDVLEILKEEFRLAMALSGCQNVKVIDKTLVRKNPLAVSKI
Nature of the test: GO Cellular Assay: Primary Hepatocyte Assay (Assay 2). Type of test: cell-based. To be noted: primary mouse hepatocytes, 5 mM glycolate, oxalate at 72 hours; read-out: Range of IC50 values calculated from the cellular assays (Assay 2). On the procedure: Assay 2: GO Cellular Assay: Primary Hepatocyte Assay
Primary hepatocytes were used for a GO cellular assay as previously described (Martin-Higueras et al., Mol Ther. 24(4): 719-725 (2016)). Hepatocytes were isolated using an in situ collagenase perfusion method from male C56BL/6 mice liver. The freshly isolated hepatocytes were cultured in six well plates with Williams E medium supplemented with 5% fetal bovine serum, 2 mM 1-glutamine, 100 U/ml penicillin, 100 μg/ml streptomycin, 2.2 mUI/ml insulin and 0.3 μg/ml hydrocortisone. After 5 hours, the medium was changed to Williams E complete medium (Biochrom, Cambridge, UK) without serum and cells were treated with various concentrations of inhibitors in the presence of 5 mM glycolate. Culture medium was harvested at 72 hours after treatment, and the oxalate was quantified by using an oxalate oxidase assay kit (Trinity Biotech, Co Wicklow, Ireland) following manufacturer's instructions. The oxalate level was also confirmed by LC-MS method. The IC50 value for each measured compound was generated from sigmoidal dose-response (variable slope) curves with GraphPad Prism software (GraphPad Software, Inc., San Diego, Calif.) using the percent inhibition of GO activity relative to DMSO control.

The target in test [2] is T2, GO (Homo sapiens, UniProt Q9UJM8).
T2 sequence (Q9UJM8 1-370): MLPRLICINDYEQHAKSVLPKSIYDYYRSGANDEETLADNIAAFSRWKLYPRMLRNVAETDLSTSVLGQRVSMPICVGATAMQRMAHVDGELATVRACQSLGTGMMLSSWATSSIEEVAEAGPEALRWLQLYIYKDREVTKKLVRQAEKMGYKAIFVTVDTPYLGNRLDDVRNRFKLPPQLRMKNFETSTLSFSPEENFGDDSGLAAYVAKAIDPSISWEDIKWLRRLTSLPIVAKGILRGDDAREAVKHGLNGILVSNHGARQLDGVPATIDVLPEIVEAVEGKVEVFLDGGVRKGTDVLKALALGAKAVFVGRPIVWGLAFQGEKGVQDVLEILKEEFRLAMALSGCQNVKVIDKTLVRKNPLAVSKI
As to the kind of experiment: GO Cellular Assay: CHO-Agt Cells Assay (Assay 3). Type of test: cell-based, Chinese hamster. Further details: host or cells: CHO cells (A.T.C.C. CCl-61) and engineered CHO-Agt cells (from Fargue/Danpure). To be noted: 100 uM glycolic acid, glyoxylate by LC-MS at 2 hours, read-out: Range of IC50 values calculated from the cellular assays (Assay 3). How it is done:
Assay 3: GO Cellular Assay: CHO-Agt Cells Assay
CHO cells (A.T.C.C. number CCl-61) and engineered CHO-Agt cells (provided by Dr. Sonia Fargue and Dr. Christopher J. Danpure, Biochem. J. (2006) 394, 409-416) were used as a screening cellular assay for primary compounds. The cells were seeded in 20,000 cell/well in 96 well plate and cultured at 37-C under O2/CO2 (19:1) in Ham's F12 medium (Invitrogen) supplemented with fetal calf serum (10%, v/v), L-glutamine (2 mM), penicillin (100 units/ml) and streptomycin (100 pug/ml). After overnight culture, the cells were treated with various concentrations of inhibitors in the presence of 100 uM glycolic acid in HEPES buffer, pH7.0 (Sigma-Aldrich, Cat #124737). Culture medium was harvested at 2 hours after treatment for glyoxylate analysis and cell viability was measured by Cell Titer-Glo (Fisher Scientific, Cat #. PR-G7570).
The glyoxylate was quantified using LC-MS method. An aliquot of 120 μL medium was removed from each well and protein precipitated by adding 240 μL IS (100 ng/ml 13C2-glyoxylic acid, Sigma-Aldrich, Cat #G755002). The mixture was vortex-mixed well and centrifuged at 3900 rpm for 15 min, 4° C. 100 μL supernatant was then mixed with 10 μL formic acid and 100 μL 400 μM DNPH (2,4-dinitrophenylhydrazine) (Shanghai Runjie Huaxue Shiji Ltd., Cat #A0000436) and the mixture was shaken for 30 minutes. A 3 μL mixture of reaction mixture was injected for LC-MS/MS analysis. (Behnam J T, Williams E L, Brink S, Rumsby G, Danpure C J., “Reconstruction of human hepatocyte glyoxylate metabolic pathways in stably transformed Chinese-hamster ovary cells”, Biochem J. 2006 Mar. 1; 394 (Pt 2):409-16.)

As for `CCN(CC)C(=O)OCOC(=O)c1[nH]nnc1O[C@H]1CC[C@H](c2ccc(OC(F)(F)F)cc2)CC1` [Compound 370, ((diethylcarbamoyl)oxy)methyl 4-(((trans)-4-(4-(trifluoromethoxy)phenyl)cyclohexyl)oxy)-1H-1,2,3-triazole-5-carboxylate], in test [1], the IC50 was less than 1000 nM.

Take `CC(C)C(=O)OCCOC(=O)c1[nH]nnc1O[C@H]1CC[C@H](c2ccc(OC(F)(F)F)cc2)CC1` [Compound 371, 2-(isobutyryloxy)ethyl 4-(((trans)-4-(4-(trifluoromethoxy)phenyl)cyclohexyl)oxy)-1H-1,2,3-triazole-5-carboxylate]: the IC50 in test [1] is less than 1000 nM.

With `OCc1[nH]nnc1Oc1ccc(-c2ccc(OC(F)(F)F)cc2)cc1` [Compound 487, (4-((4′-(trifluoromethoxy)-[1,1′-biphenyl]-4-yl)oxy)-1H-1,2,3-triazol-5-yl)methanol], the concentration for half-maximal inhibition (IC50) in test [1] and in test [2] was 1000 to 5000 nM in each case.

Consider `OCc1[nH]nnc1O[C@H]1CC[C@H](c2ccc(OC(F)(F)F)cc2)CC1` [Compound 488, (4-(((trans)-4-(4-(trifluoromethoxy)phenyl)cyclohexyl)oxy)-1H-1,2,3-triazol-5-yl)methanol], for which the 50% inhibitory concentration (IC50) is less than 1000 nM in test [1] and 1000 to 5000 nM in test [2].

Take `O=Cc1[nH]nnc1O[C@H]1CC[C@H](c2ccc(OC(F)(F)F)cc2)CC1` [Compound 490, 4-(((trans)-4-(4-(trifluoromethoxy)phenyl)cyclohexyl)oxy)-1H-1,2,3-triazole-5-carbaldehyde]: the IC50 in test [1] and in test [2] was less than 1000 nM in each case.

For `O=Cc1[nH]nnc1Oc1ccc(-c2ccc(OC(F)(F)F)cc2)cc1` [Compound 491, 4-((4′-(trifluoromethoxy)-[1,1′-biphenyl]-4-yl)oxy)-1H-1,2,3-triazole-5-carbaldehyde], the IC50 in test [1] and in test [2] was less than 1000 nM each time.

On to `OCc1[nH]nnc1Sc1ccc(-c2ccc(N3CCCCC3)cc2)cc1` [Compound 492, (4-((4′-(piperidin-1-yl)-[1,1′-biphenyl]-4-yl)thio)-1H-1,2,3-triazol-5-yl)methanol], for which the values for the IC50 in test [1] and in test [2] were less than 1000 nM and more than 10000 nM, respectively.

With `OCc1[nH]nnc1Oc1ccc(-c2ccc(Cl)c(Cl)c2)cc1` [Compound 493-1, (4-((3′,4′-dichloro-[1,1′-biphenyl]-4-yl)oxy)-1H-1,2,3-triazol-5-yl)methanol], the half-maximal inhibitory concentration (IC50) was less than 1000 nM in test [1] and 1000 to 5000 nM in test [2].

For the compound `OCc1nn[nH]c1Oc1ccc(-c2ccc(N3CCCCC3)cc2)cc1` [Compound 496, (4-((4′-(piperidin-1-yl)-[1,1′-biphenyl]-4-yl)oxy)-1H-1,2,3-triazol-5-yl)methanol], the IC50 in test [1] and in test [2] was less than 1000 nM each time.

As for `OCc1[nH]nnc1Sc1ccc(-c2ccc(OC(F)(F)F)cc2)cc1` [Compound 497, (4-((4′-(trifluoromethoxy)-[1,1′-biphenyl]-4-yl)thio)-1H-1,2,3-triazol-5-yl)methanol], the IC50 in test [2] is more than 10000 nM.

The record behind these values is patent publication US20230088214A1, “GLYCOLATE OXIDASE INHIBITORS FOR THE TREATMENT OF DISEASE” (BIOMARIN PHARMACEUTICAL INC., priority 2019, published 2023).
